In paper PMC6337391 (Molecules, 2019):

Tests used:
human h-15-LOX-1 = target: T1, human h-15-LOX-1 (Homo sapiens, UniProt P16050); assay: Human h-15-LOX-1 screening UV assay; assay type: biochemical; conditions: read-out: h-15-LOX-1 Inhb. IC50
T1 sequence (P16050 1-662): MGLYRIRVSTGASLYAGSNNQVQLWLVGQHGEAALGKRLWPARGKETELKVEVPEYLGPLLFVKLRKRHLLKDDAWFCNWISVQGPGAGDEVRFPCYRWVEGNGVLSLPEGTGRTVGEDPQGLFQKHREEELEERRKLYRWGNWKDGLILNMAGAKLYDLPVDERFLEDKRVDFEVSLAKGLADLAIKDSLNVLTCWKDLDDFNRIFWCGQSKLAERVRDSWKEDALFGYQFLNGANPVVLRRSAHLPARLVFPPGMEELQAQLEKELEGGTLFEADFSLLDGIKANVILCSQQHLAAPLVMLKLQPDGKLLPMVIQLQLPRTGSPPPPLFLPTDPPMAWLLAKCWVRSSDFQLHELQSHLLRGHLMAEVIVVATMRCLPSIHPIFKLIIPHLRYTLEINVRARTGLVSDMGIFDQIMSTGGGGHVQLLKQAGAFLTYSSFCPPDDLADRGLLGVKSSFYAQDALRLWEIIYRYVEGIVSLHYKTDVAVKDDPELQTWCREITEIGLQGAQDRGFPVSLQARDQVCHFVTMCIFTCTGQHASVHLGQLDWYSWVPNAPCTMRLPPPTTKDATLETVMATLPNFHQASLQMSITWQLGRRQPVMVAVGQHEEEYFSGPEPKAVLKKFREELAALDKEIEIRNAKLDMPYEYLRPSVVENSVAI
Description: The residual enzyme activity was measured after 10 min pre-incubation with the tested compounds at room temperature. […] Compound c11 follows.
The assay buffer consists of HEPES titrated to pH 7.5 using a concentrated aqueous solution of NaOH. Linoleic acid (LA) was used as a substrate. The linear absorbance increase in absence of the inhibitor was set as 100%, whereas the absorbance increase in absence of the enzyme was set to 0%. All experiments were performed in triplicate and the average triplicate values and their standard deviations are plotted. The vertical axis describes the residual enzyme activity percent % of the human h-15-LOX-1, whereas the horizontal axis describes the concentration of 50 µM of the compounds. The half maximal inhibitor concentration (IC50) of the inhibitors for h-15-LOX-1 was determined using the same assay (Figure 6 and Figure 7).

Aβ40 = target: T2, Aβ40 (Homo sapiens, UniProt P05067); assay: Circular dichroism study of Aβ40 aggregation; conditions: 50 µM compound, 50 µM Aβ40 (1:1), PB pH 7.33, 33 °C, 40 days
T2 construct: Amyloid peptide Aβ40 was purchased from AnaSpec Co; purchased AnaSpec Co. (Fremont, CA, USA)
T2 sequence (P05067 672-711 limits assumed): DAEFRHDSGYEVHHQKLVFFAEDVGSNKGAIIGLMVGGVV
Text: The pathogenesis of Alzheimer’s disease (AD) is widely associated with the aggregation of β-amyloid peptide (Aβ) either to soluble oligomers or to higher-order polymeric insoluble fibrils. As a result, one of the main therapeutic strategies against AD targets the aggregation process of Aβ, and a great number of small molecules are being investigated for their potential to intervene in the assembly of Aβ and inhibit its neurotoxicity in vitro and in vivo [64]. Circular dichroism (CD) spectroscopy is commonly used to probe the secondary structure of polypeptides and to monitor conformational changes and interactions of polypeptides with small molecules. The typical aggregation process of Aβ produces characteristic CD spectra over time that reflect the conformational changes that occur as the random coil monomers are converted into β-sheet oligomers, and then gradually to larger β-sheet formations that finally produce amyloid fibrils. CD is, therefore, a valuable tool to monitor the aggregation process of Aβ and to study the effect of potential aggregation inhibitors. To further investigate the pleiotropic effects of chalcones against AD, selected compounds from our library, were subjected to CD studies in order to evaluate their potential to interfere with the aggregation process of Aβ40. […] The aggregation spectra of plain Aβ40 show at day 0 the typical random coil peak (negative maximum at 198 nm) the intensity of which gradually decreases as the peptide forms β–sheet structures (negative maximum at 222 nm, day 15) that further aggregate to higher order polymeric fibrils. The precipitation of the insoluble fibrils from solution eventually results in the loss of CD signal (days 30 and 40). […] In view of the above results, chalcone derivatives bearing a three-carbon chain linker, specifically c2, c3, and c4, were subsequently studied in order to assess the effect of further derivatization and the presence of the chalcone moiety in the structure. […] Overall, our CD study identified three new structures capable of interfering with the aggregation process of Aβ, out of which compounds c2 and c4 display additional protective actions against AD and add to the pleiotropic profile of the chalcone derivatives.
Preparation of Aβ stocks and solutions. Amyloid peptide Aβ40 was purchased from AnaSpec Co. (Fremont, CA, USA) (>95% pure). Aβ40 was gently dissolved without vortexing in Type 1 (Milli-Q) water to a final concentration of 100 μM. Solutions of Aβ in phosphate buffer (PB, 10 mM, pH 7.33) were prepared by adding equal volumes of PB to aliquots of the aqueous solution stock to achieve final concentration of 50 µM. The proper amount of the compounds c2, c3, c4, di, dii, and dvi were added to the Aβ solutions to achieve concentration of 50 μM. The secondary structural changes of Aβ were monitored for 40 days by CD. During this period, the amyloid peptide solutions were kept at an incubator at 33 °C under quiescent conditions.
Circular dichroism measurements. CD spectra were recorded on a JASCO J-715 spectropolarimeter (Jasco Co., Tokyo, Japan), at 33 °C in the range of 190–260 nm with a 1 mm path length quartz cuvette. Each spectrum was the average of three scans at a speed of 100 nm·min^−1 and a resolution of 0.5 nm. Three independent experiments were run for each condition and in each case solutions of plain Aβ were run as control (Figure 8). The analysis of the CD data was performed using the OriginPro 9 program.

[1] = design: method as in PMID 25798685; conditions: DPPH, cited from earlier work
[2] = design: method as in PMID 25798685; conditions: cited from earlier work
[3] = design: method as in PMID 25798685; conditions: cited from earlier work; remark: listed apart in the source
soybean lipoxygenase = target: T3, soybean lipoxygenase (Glycine max, UniProt P08170); design: method as in PMID 25798685; conditions: cited from earlier work
T3 sequence (P08170 1-839): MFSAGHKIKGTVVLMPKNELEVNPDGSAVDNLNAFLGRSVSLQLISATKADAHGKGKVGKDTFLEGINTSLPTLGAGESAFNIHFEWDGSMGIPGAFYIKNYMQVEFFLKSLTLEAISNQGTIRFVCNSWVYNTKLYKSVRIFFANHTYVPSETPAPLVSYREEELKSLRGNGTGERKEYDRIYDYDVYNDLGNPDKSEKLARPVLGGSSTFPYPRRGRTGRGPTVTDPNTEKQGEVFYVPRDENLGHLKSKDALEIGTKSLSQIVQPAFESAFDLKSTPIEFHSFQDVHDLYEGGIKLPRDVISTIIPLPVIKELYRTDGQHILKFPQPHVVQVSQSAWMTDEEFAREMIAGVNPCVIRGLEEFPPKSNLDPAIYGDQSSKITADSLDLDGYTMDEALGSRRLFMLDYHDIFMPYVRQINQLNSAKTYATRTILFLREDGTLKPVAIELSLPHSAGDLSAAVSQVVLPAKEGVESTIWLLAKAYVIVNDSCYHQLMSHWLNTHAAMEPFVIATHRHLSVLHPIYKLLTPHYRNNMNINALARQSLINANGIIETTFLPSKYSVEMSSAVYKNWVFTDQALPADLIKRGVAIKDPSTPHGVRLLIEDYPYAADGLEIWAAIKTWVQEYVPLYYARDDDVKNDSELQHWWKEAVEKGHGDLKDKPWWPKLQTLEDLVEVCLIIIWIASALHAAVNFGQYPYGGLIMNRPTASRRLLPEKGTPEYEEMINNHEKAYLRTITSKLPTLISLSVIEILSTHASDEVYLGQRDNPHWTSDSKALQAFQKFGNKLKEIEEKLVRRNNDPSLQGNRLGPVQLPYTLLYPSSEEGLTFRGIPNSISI

[4] = target: acetyl-cholinesterase (AChE) (Electrophorus electricus, UniProt O42275); conditions: cited from earlier work
Sequence of acetyl-cholinesterase (AChE) (O42275 24-633): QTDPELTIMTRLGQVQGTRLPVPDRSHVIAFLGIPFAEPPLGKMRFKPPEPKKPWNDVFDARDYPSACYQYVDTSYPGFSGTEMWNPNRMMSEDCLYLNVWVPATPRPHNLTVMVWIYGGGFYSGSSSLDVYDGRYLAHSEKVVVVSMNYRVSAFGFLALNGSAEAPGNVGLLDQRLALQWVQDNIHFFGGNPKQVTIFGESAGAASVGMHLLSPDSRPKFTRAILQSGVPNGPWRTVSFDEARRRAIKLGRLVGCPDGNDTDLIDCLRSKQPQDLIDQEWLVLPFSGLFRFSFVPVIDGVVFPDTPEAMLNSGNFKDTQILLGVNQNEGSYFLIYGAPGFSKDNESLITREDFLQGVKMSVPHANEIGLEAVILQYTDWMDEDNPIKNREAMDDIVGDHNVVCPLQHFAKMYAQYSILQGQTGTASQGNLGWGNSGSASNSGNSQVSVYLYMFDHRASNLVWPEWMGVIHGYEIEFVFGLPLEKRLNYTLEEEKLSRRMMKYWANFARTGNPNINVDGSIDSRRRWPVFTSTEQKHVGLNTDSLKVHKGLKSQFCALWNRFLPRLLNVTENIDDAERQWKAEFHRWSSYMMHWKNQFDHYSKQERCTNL

[5] = design: method as in PMID 25798685; conditions: RP-TLC, methanol/water 70/30, SD < 10%; cited from earlier work
[6] = system: L929 mouse fibroblasts cells; design: method as in PMID 25798685; conditions: 24-h incubation, cited from earlier work
[7] = In vitro lipid peroxidation of liposomes

In the case of `c1ccc2c(c1)SCc1c-2[nH]c2ccccc12` [PD-146176, reference compound], the IC50 (human h-15-LOX-1) is reported as 16 µM.
In the case of `O=C(/C=C/c1cccc2ccccc12)c1ccc(OCCCOc2ccc(C(=O)/C=C/c3cccc4ccccc34)cc2)cc1` [c4, (2E,2′E)-1, 1′-((propane-1,3-diylbis-(oxy))bis-(4,1-phenylene)) bis-(3-(naphthalen-1-yl)prop-2-en-1-one)], the “effect on the aggregation process of Aβ40 (CD spectra)” value (from here on “effect on the aggregation process”) (Aβ40) is given as “stabilized β-sheet assemblies that did not evolve further into insoluble fibrillar aggregates”, the “RA% 100 μM 20 min” value [1] is given as 19% and the “RA% 100 μM 60 min” value [1] is given as 50%. The “ABTS•+ Inhb. % @ 100 μM” value [2] was “no”, the “AAPH% @ 100 μM (anti-lipid peroxidation)” value [3] was 95% and the “% LOX Inhb. @ 100 μM” value (soybean lipoxygenase) was 100%. For the same compound, the “% AChE Inhb. @ 100 μM” value [4] was 58%, the RM [5] was 0.43 and the “1 μM Average (% pi) ± σ” value [6] was 29.5 ± 3.5%. For the same compound, the “10 μM Average (% pi) ± σ” value [6] was 42 ± 4.6%, the “20 μM Average (% pi) ± σ” value [6] was 46 ± 5.6% and the “50 μM Average (% pi) ± σ” value [6] was 67 ± 9.2%. For the same compound, the “100 μM Average (% pi) ± σ” value [6] was 67 ± 9.2% and the “% Inhb. of Liposomes LP @ 100 μM” value [7] was 3%.
For `CC(=O)c1ccc(OCCCOc2ccc(C(C)=O)cc2)cc1` [dii, 1,1′-((propane-1,3-diylbis-(oxy))bis(4,1-phenylene))diethanone], the “effect on the aggregation process” value (Aβ40) is listed as “modified the aggregation course of Aβ40 by stabilizing a β-sheet structure that did not seem to evolve further”, the “RA% 100 μM 20 min” value [1] is listed as “No” and the “RA% 100 μM 60 min” value [1] is listed as “no”. For the same compound, the “ABTS•+ Inhb. % @ 100 μM” value [2] was “No”, the “AAPH% @ 100 μM (anti-lipid peroxidation)” value [3] was 20% and the “% LOX Inhb. @ 100 μM” value (soybean lipoxygenase) was “no”. For the same compound, the “% AChE Inhb. @ 100 μM” value [4] was 20%, the RM [5] was −0.23 and the “1 μM Average (% pi) ± σ” value [6] was 9 ± 4.5%. The “10 μM Average (% pi) ± σ” value [6] was 8.5 ± 4.24%, the “20 μM Average (% pi) ± σ” value [6] was 13 ± 4.5% and the “50 μM Average (% pi) ± σ” value [6] was 42 ± 3.5%. The “100 μM Average (% pi) ± σ” value [6] was 42 ± 3.5%.
In the case of `CN(C)c1ccc(/C=C/C=C/C(=O)c2ccc(OCCCOc3ccc(C(=O)/C=C/C=C/c4ccc(N(C)C)cc4)cc3)cc2)cc1` [c3, (2E,2′E, 4E, 4′E)-1,1′-((propane-1,3-diylbis-(oxy))bis(4,1-phenylene)) bis-(5-(4-(dimethylamino)phenyl)penta-2,4-dien-1-one)], the “effect on the aggregation process” value (Aβ40) is given as “no significant effect on the aggregation process of Aβ40 was observed”, the “RA% 100 μM 20 min” value [1] is given as 17% and the “RA% 100 μM 60 min” value [1] is given as 14%. The “ABTS•+ Inhb. % @ 100 μM” value [2] was 99%, the “AAPH% @ 100 μM (anti-lipid peroxidation)” value [3] was 70% and the “% LOX Inhb. @ 100 μM” value (soybean lipoxygenase) was 93%. For the same compound, the “% AChE Inhb. @ 100 μM” value [4] was 95%, the RM [5] was 0.77 and the “1 μM Average (% pi) ± σ” value [6] was 81 ± 0.8%. For the same compound, the “10 μM Average (% pi) ± σ” value [6] was 90 ± 1%, the “20 μM Average (% pi) ± σ” value [6] was 100 ± 0% and the “50 μM Average (% pi) ± σ” value [6] was 100 ± 0%. For the same compound, the “100 μM Average (% pi) ± σ” value [6] was 100 ± 0% and the “% Inhb. of Liposomes LP @ 100 μM” value [7] was 81%.
In the case of `O=C(/C=C/c1cccc(Oc2ccccc2)c1)c1ccc(OCCCOc2ccc(C(=O)/C=C/c3cccc(Oc4ccccc4)c3)cc2)cc1` [c2, (2E,2′E)-1,1′-((propane-1,3-diylbis(oxy))bis(4,1-phenylene))bis(3-(3-phenoxyphenyl)prop-2-en-1-one)], the “effect on the aggregation process” value (Aβ40) is given as “stabilized β-sheet assemblies that did not evolve further into insoluble fibrillar aggregates”, the “RA% 100 μM 20 min” value [1] is given as “No” and the “RA% 100 μM 60 min” value [1] is given as 8%. For the same compound, the “ABTS•+ Inhb. % @ 100 μM” value [2] was “no”, the “AAPH% @ 100 μM (anti-lipid peroxidation)” value [3] was 22% and the “% LOX Inhb. @ 100 μM” value (soybean lipoxygenase) was 100%. The IC50 (soybean lipoxygenase; soybean LOX) was 55 µM, the “% AChE Inhb. @ 100 μM” value [4] was 71% and the RM [5] was −0.89. The “1 μM Average (% pi) ± σ” value [6] was 17 ± 1.4%, the “10 μM Average (% pi) ± σ” value [6] was 29 ± 4.2% and the “20 μM Average (% pi) ± σ” value [6] was 43 ± 2.8%. The “50 μM Average (% pi) ± σ” value [6] was 55 ± 4.2%, the “100 μM Average (% pi) ± σ” value [6] was 55 ± 4.2% and the “% Inhb. of Liposomes LP @ 100 μM” value [7] was 2%.
